Holding throughout (format): biochemical
One assay has as its target T1, recombinant human VAP-1 (Homo sapiens, UniProt Q16853).
T1 construct: purchased R&D systems
T1 sequence (Q16853 1-763): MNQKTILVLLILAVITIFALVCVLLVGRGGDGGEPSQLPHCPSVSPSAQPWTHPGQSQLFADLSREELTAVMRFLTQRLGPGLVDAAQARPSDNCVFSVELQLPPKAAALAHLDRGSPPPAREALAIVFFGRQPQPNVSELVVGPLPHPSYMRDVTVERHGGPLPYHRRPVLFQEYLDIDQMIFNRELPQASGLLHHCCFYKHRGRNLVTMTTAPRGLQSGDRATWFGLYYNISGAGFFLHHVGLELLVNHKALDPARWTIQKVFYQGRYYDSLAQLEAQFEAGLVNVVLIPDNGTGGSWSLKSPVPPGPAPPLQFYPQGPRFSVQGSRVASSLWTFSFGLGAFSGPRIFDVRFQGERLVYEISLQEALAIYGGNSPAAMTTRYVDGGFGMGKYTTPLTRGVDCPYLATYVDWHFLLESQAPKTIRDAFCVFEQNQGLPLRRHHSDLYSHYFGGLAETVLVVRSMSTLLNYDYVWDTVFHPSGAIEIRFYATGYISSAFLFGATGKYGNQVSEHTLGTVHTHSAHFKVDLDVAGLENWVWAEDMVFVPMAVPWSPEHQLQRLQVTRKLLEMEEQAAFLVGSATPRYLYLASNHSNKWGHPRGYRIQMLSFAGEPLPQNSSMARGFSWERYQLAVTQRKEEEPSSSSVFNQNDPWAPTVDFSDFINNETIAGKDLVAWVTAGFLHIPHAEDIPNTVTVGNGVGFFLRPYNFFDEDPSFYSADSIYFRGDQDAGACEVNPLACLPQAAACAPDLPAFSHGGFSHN
Kind of assay: Activity evaluation on recombinant human VAP-1 (Amplex Red/HRP-coupled hydrogen peroxide assay, benzylamine substrate). The following applies: read-out: Inhibitory Activity (IC50, nM) human VAP-1. An outline of the steps: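 Hydrogen peroxide from benzylamine (1 mM) oxidation by human recombinant VAP-1 detected via HRP-coupled Amplex Red (200 uM) fluorescence, kinetic over 1–2 h. Enzyme and compound preincubated 30 min at 37 °C, pH 7.4 phosphate; 8-point dose response, signal-rate decrease versus DMSO control fitted to four-parameter logistic for IC50.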

Assay [1] concerns the target T2, recombinant human MAO-A (monoamine oxidase-A) (Homo sapiens, UniProt P21397).
T2 construct: purchased Sigma-Aldrich
T2 sequence (P21397 1-527): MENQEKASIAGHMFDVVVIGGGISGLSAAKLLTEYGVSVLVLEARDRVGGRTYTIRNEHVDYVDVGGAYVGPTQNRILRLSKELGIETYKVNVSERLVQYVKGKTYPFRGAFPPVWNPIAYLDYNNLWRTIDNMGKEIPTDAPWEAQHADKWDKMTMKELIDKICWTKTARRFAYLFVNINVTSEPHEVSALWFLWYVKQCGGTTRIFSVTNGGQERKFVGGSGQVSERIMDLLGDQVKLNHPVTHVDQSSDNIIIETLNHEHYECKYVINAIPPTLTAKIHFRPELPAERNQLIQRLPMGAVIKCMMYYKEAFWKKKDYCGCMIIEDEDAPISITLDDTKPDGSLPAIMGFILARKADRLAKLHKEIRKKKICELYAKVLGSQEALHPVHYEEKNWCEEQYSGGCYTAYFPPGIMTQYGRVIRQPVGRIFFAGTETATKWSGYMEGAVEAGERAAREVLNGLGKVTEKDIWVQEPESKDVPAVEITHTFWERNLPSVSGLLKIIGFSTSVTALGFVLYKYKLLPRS
Kind of assay: Activity evaluation on recombinant human MAO-A (Amplex Red/HRP-coupled assay, 0.5 mM tyramine substrate). The following applies: read-out: Inhibitory Activity (IC50, nM) MAO-A. An outline of the steps: (§1)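 8-pt 1:3 dilution series, final DMSO <1%; 30 min 37 °C preincubation w/ enzyme, 50 mM Na phosphate pH 7.4; + 200 uM Amplex Red, 1 U/mL HRP, substrate (MAO-A tyramine 0.5 mM; MAO-B benzylamine 1 mM; DAO putrescine 1 mM); fluor. rate 544/590 nm, 1-2 h; 4-param IC50.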

In assay [2] the target is T3, recombinant human MAO-B (monoamine oxidase-B) (Homo sapiens, UniProt P27338).
T3 construct: purchased Sigma-Aldrich
T3 sequence (P27338 1-520): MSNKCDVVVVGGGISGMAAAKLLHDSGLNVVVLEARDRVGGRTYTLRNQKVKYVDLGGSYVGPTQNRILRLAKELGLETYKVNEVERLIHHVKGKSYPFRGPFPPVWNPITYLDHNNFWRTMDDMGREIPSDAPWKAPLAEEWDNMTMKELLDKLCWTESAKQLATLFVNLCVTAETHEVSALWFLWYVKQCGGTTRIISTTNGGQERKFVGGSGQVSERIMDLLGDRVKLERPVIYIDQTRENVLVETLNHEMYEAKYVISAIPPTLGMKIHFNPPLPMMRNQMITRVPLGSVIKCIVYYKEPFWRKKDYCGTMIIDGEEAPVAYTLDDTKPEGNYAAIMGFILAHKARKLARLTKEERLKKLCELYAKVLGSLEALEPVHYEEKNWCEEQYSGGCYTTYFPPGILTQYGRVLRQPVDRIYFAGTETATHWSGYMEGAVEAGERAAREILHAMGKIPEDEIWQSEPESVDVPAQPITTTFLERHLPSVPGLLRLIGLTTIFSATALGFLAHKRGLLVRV
Briefly: Activity evaluation on recombinant human MAO-B (Amplex Red/HRP-coupled assay, 1 mM benzylamine substrate). As to conditions: read-out: Inhibitory Activity (IC50, nM) MAO-B. An outline of the steps: as §1

In assay [3] the target is T4, recombinant human DAO (diamine oxidase) (Homo sapiens, UniProt P19801).
T4 construct: purchased R&D systems
T4 sequence (P19801 20-751): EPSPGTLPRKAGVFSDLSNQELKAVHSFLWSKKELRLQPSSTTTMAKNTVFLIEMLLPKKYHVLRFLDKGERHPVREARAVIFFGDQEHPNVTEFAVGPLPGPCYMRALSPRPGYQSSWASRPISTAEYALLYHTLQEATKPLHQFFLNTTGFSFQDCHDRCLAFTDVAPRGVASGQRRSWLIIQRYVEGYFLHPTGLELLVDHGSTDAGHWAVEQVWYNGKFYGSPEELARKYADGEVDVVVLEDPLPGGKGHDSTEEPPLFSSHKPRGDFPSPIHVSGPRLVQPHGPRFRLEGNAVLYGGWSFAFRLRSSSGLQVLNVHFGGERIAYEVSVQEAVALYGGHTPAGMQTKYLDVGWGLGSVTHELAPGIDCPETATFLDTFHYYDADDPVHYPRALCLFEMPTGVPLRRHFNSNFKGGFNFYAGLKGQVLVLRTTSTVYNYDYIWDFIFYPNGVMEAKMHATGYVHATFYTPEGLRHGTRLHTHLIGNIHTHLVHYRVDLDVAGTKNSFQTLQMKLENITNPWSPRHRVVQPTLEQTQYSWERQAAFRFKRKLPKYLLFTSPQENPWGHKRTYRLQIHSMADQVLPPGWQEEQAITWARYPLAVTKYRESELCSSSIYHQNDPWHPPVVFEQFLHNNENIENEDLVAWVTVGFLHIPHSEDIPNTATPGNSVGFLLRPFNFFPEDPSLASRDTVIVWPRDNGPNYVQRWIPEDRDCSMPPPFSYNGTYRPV
Kind of assay: Activity evaluation on recombinant human DAO (Amplex Red/HRP-coupled assay, 1 mM putrescine substrate). The following applies: read-out: Inhibitory Activity (IC50, nM) DAO. Put shortly:
as §1

Where [4] appears, read: recombinant human VAP-1, 30 min preincubation at 37° C., 1 mM benzylamine.
The mark [5] stands for this setting: recombinant human VAP-1, benzylamine substrate.

Counter-ions that a name gives are not always drawn. Like-named read-outs stand apart in the source and are kept apart here.

Regarding `CN1C(=O)CCc2cc(-c3csc(Cn4cnn(CC(CN)=C(F)F)c4=O)c3)ccc21` [Example 152, 6-[5-[[1-[2-(aminomethyl)-3,3-difluoro-allyl]-5-oxo-1,2,4-triazol-4-yl]methyl]-3-thienyl]-1-methyl-3,4-dihydroquinolin-2-one Trifluoroacetate], the IC50 on recombinant human VAP-1 (setting [4]) was 0.2 nM; in assay [1] (0.5 mM tyramine), greater than 100000 nM; in assay [2] (1 mM benzylamine), 13400 nM; in assay [3] (1 mM putrescine), 3500 nM.

Consider `CN(C)S(=O)(=O)c1cccc(-c2ccc(Cn3cnn(CC(CN)=C(F)F)c3=O)s2)c1` [Example 103, 3-[5-[[1-[2-(aminomethyl)-3,3-difluoro-allyl]-5-oxo-1,2,4-triazol-4-yl]methyl]-2-thienyl]-N,N-dimethyl-benzenesulfonamide trifluoroacetate], for which the IC50 is 0.9 nM on recombinant human VAP-1 (setting [4]), greater than 100000 nM in assay [1] (0.5 mM tyramine), 4200 nM in assay [2] (1 mM benzylamine) and 22000 nM in assay [3] (1 mM putrescine).

In the case of `CN1CCOc2cc(-c3ccc(Cn4cnn(CC(CN)=C(F)F)c4=O)s3)ccc21` [Example 140, 2-[2-(aminomethyl)-3,3-difluoro-allyl]-4-[[5-(4-methyl-2,3-dihydro-1,4-benzoxazin-7-yl)-2-thienyl]methyl]-1,2,4-triazol-3-one Trifluoroacetate], the IC50 on recombinant human VAP-1 (setting [4]) worked out at 0.8 nM; in assay [1] (0.5 mM tyramine), 6600 nM; in assay [2] (1 mM benzylamine), 8000 nM; in assay [3] (1 mM putrescine), 6800 nM.

With `CN(C)c1ccc(-c2ccc(-n3cnn(CC(CN)=C(F)F)c3=O)cn2)cn1` [Example 41, 2-[2-(aminomethyl)-3,3-difluoro-allyl]-4-[6-[6-(dimethylamino)-3-pyridyl]-3-pyridyl]-1,2,4-triazol-3-one Trifluoroacetate], the IC50 is 0.2 nM on recombinant human VAP-1 (setting [4]), greater than 100000 nM in assay [1] (0.5 mM tyramine), 470 nM in assay [2] (1 mM benzylamine) and 120 nM in assay [3] (1 mM putrescine).

As for `Cc1cc(-c2cnn(C(C)C)c2)cnc1-n1cnn(CC(CN)=C(F)F)c1=O` [Example 252, 2-[2-(aminomethyl)-3,3-difluoro-allyl]-4-[5-(1-isopropylpyrazol-4-yl)-3-methyl-2-pyridyl]-1,2,4-triazol-3-one Trifluoroacetate], the IC50 on recombinant human VAP-1 (setting [5]) is 1 nM; in assay [1] (0.5 mM tyramine substrate) it was greater than 100000 nM; in assay [2] (1 mM benzylamine substrate), 35000 nM; in assay [3] (1 mM putrescine substrate), 17000 nM.

For the compound `CS(=O)(=O)c1ccc(-c2ccc(-n3cnn(CC(CN)=C(F)F)c3=O)cc2F)cc1` [Example 24, 2-[2-(aminomethyl)-3,3-difluoro-allyl]-4-[3-fluoro-4-(4-methylsulfonylphenyl)phenyl]-1,2,4-triazol-3-one Trifluoroacetate], the IC50 at recombinant human VAP-1 (setting [4]) was 2.7 nM; in assay [1] (0.5 mM tyramine), greater than 100000 nM; in assay [2] (1 mM benzylamine) it was 3300 nM; in assay [3] (1 mM putrescine), 600 nM.

As for `CCn1cc(-c2ccccc2Cn2cnn(CC(CN)=C(F)F)c2=O)cn1` [Example 278, 2-[2-(aminomethyl)-3,3-difluoro-allyl]-4-[[2-(1-ethylpyrazol-4-yl)phenyl]methyl]-1,2,4-triazol-3-one trifluoroacetate], the IC50 at recombinant human VAP-1 (setting [5]) is 17 nM; in assay [1] (0.5 mM tyramine substrate) it was greater than 100000 nM; in assay [2] (1 mM benzylamine substrate), greater than 100000 nM; in assay [3] (1 mM putrescine substrate), greater than 100000 nM.

As for `Cc1cc(-c2ccc(S(C)(=O)=O)cc2)cnc1-n1cnn(CC(CN)=C(F)F)c1=O` [Example 68, 2-[2-(aminomethyl)-3,3-difluoro-allyl]-4-[3-methyl-5-(4-methylsulfonylphenyl)-2-pyridyl]-1,2,4-triazol-3-one Trifluoroacetate], the IC50 is 0.5 nM on recombinant human VAP-1 (setting [4]), greater than 100000 nM in assay [1] (0.5 mM tyramine), 55000 nM in assay [2] (1 mM benzylamine) and 2100 nM in assay [3] (1 mM putrescine).

On to `Cc1cc(C#Cc2cnc3c(c2)OCCN3)cnc1-n1cnn(CC(CN)=C(F)F)c1=O` [Example 245, 2-[2-(aminomethyl)-3,3-difluoro-allyl]-4-[5-[2-(3,4-dihydro-2H-pyrido[3,2-b][1,4]oxazin-7-yl)ethynyl]-3-methyl-2-pyridyl]-1,2,4-triazol-3-one ditrifluoroacetate], for which the IC50 is 2.7 nM on recombinant human VAP-1 (setting [5]), greater than 100000 nM in assay [1] (0.5 mM tyramine substrate), 15000 nM in assay [2] (1 mM benzylamine substrate) and 14000 nM in assay [3] (1 mM putrescine substrate).

`NCC(Cn1ncn(CCc2ccc(-c3ccc(C(F)(F)F)nc3)s2)c1=O)=C(F)F` [Example 175, 2-[2-(aminomethyl)-3,3-difluoro-allyl]-4-[2-[5-[6-(trifluoromethyl)-3-pyridyl]-2-thienyl]ethyl]-1,2,4-triazol-3-one Trifluoroacetate]: the IC50 is 0.4 nM on recombinant human VAP-1 (setting [4]), greater than 100000 nM in assay [1] (0.5 mM tyramine), 14000 nM in assay [2] (1 mM benzylamine) and 250 nM in assay [3] (1 mM putrescine).

On to `NCC(Cn1ncn(-c2ccc(-c3ccc4c(c3)OCO4)nc2)c1=O)=C(F)F` [Example 42, 2-[2-(aminomethyl)-3,3-difluoro-allyl]-4-[6-(1,3-benzodioxol-5-yl)-3-pyridyl]-1,2,4-triazol-3-one Trifluoroacetate], for which the IC50 at recombinant human VAP-1 (setting [4]) was 0.3 nM; in assay [1] (0.5 mM tyramine), greater than 100000 nM; in assay [2] (1 mM benzylamine), 34 nM; in assay [3] (1 mM putrescine) it was 250 nM.

The values are drawn from patent US11168073B2, “3,3-difluoroallylamines or salts thereof and pharmaceutical compositions comprising the same” (YUHAN CORPORATION, priority 2018, dated 2021).
